Measured values published in BigSolDB 2.1.

O=C(Nc1ccc([N+](=O)[O-])cc1Cl)c1cc(Cl)ccc1O
solubility (mole fraction)
Conditions | in DMSO | in ethanol | in isopropanol | in methanol | in n-butanol | in water
298.15 K | 0.000152 | 0.000166 | 0.000242 | 7.78e-05 | 0.000305 | 3.27e-07
303.15 K | 0.000161 | 0.000183 | 0.000274 | 7.69e-05 | 0.000309 | 4.12e-07
308.15 K | 0.000165 | 0.000186 | 0.000279 | 6.9e-05 | 0.000345 | 4.19e-07
313.15 K | 0.000167 | 0.000186 | 0.000304 | 6.75e-05 | 0.000347 | 4.27e-07
318.15 K | 0.00017 | 0.000199 | 0.000345 | 5.9e-05 | 0.000402 | 4.74e-07
323.15 K | 0.000205 | 0.0002 | 0.000348 | 5.35e-05 | 0.000591 | 6.04e-07

Conditions | solubility (mole fraction)
in PEG-200, 298.15 K | 0.000527
in PEG-200, 303.15 K | 0.000556
in PEG-200, 308.15 K | 0.000604
in PEG-200, 313.15 K | 0.000666
in PEG-200, 318.15 K | 0.000686
in PEG-200, 323.15 K | 0.00079
in PEG-400, 298.15 K | 0.0011
in PEG-400, 303.15 K | 0.00129
in PEG-400, 308.15 K | 0.00138
in PEG-400, 313.15 K | 0.00159
in PEG-400, 318.15 K | 0.00168
in PEG-400, 323.15 K | 0.00193
